Reference: patent publication US20240051957A1, “CRYSTALLINE FORM OF HETEROCYCLIC COMPOUND AS PROTEIN KINASE INHIBITOR” (HK INNO.N CORPORATION, priority 2021, published 2024)

Columns and labels:
[1] = TGA/SDTA and TGMS analysis; assay type: physicochemical; details: heating 25° C. to 300° C. at 10° C./min
Procedure: 3. TGA/SDTA and TGMS Analysis
A mass loss caused by solvent or a moisture loss from crystals was determined by thermogravimetric analysis/simultaneous differential thermal analysis (TGA/SDTA). A weight versus temperature curve was generated by monitoring the weight of samples during heating in a TGA/SDTA851e apparatus (product name, Mettler-Toledo GmbH, Switzerland). TGA/SDTA851e was calibrated with indium and aluminum samples. The sample was placed in a 100 μL aluminum crucible and sealed, and then a pin-hole was drilled therein. The crucible was heated from 25° C. to 300° C. in TGA at a heating rate of 10° C./min. Dry N2 gas was used for purging. The gas coming out of the TGA sample was analyzed by Omnistar GSD 301 T2 (product name, Pfeiffer Vacuum GmbH, Germany), which was a quadrupole mass spectrometer for analyzing a mass in the range of 0-200 amu.

[2] = Physical stability evaluation under stress conditions (XRPD before/after); assay type: physicochemical; details: stored at 60° C.±2° C./80% RH±5% for two days, packaged ((LPDE+N2)+silica gel 1 g+LDPE)+Al-Bag
Procedure: 1. XRPD Analysis A plate for obtaining an XRPD pattern was mounted on a Bruker General Area Detector Diffraction System (GADDS) equipped with a VANTEC-500 gas domain detector calibrated for intensity and geometric changes. Calibration of measurement accuracy (peak position) was performed using NIST SRM1976 standard (Corundum). Data collection was performed at room temperature using monochromatic CuKα radiation in a diffraction angle (2θ) region of 1.5° to 41.5°, the most distinct part of the XRPD pattern. The diffraction pattern of each well was collected at two 2θ ranges (1.5°≤2θ≤21.5° for a first frame and 9.5°≤2θ≤41.5° for a second frame) with an exposure time of 90 seconds for each frame. No background subtraction or curve smoothing was applied to the XRPD pattern. The carrier material used in the XRPD analysis was transparent to X-rays.
4. Experiment on Physical Stability Evaluation
Samples were packaged in the form of ((LPDE+N2)+silica gel 1 g+LDPE)+Al-Bag, and stored under stress conditions (60° C.±2° C./80% RH±5%) for two days before evaluation.

| start of thermal decomposition ([1]; TGA) | mass reduction rate (thermogravimetric analysis) ([1]; at 150° C.) | Compound | change in the XPRD pattern before/after the stress conditions (physical stability) [2] |
| --- | --- | --- | --- |
| about 260 °C | 1.6% | C[C@@H]1CN(C(=O)CC#N)CC=C1c1cc(NC(=O)C2CC2)nc2[nH]ccc12 [(S)-N-(4-(1-(2-cyanoacetyl)-3-methyl-1,2,3,6-tetrahydropyridin-4-yl)-1H-pyrrolo[2,3-b]pyridin-6-yl)cyclopropanecarboxamide] | – |
| – | – | C[C@@H]1CN(C(=O)CC#N)CC=C1c1cc(NC(=O)C2CC2)nc2[nH]ccc12 [Example 1, (S)-N-(4-(1-(2-cyanoacetyl)-3-methyl-1,2,3,6-tetrahydropyridin-4-yl)-1H-pyrrolo[2,3-b]pyridin-6-yl)cyclopropanecarboxamide] | substantially no change in the XPRD pattern |
